1 compound from patent US20100234439A1, “THERAPEUTIC AGENTS” (priority 2006, published 2010) can be followed below.

The target of this experiment is T1, CB1 receptor (Homo sapiens, UniProt P21554).
T1 construct: expressed in transfected cells; membranes prepared from them
The experiment can be described thus: [35S]-GTPγS binding assay, membranes from cells stably transfected with the CB1 gene, inhibition of CP55940 (EC80) stimulated activity. The class given is biochemical. The conditions noted are these: concentration giving half maximal inhibition of GTPγS binding; EC80 concentration of agonist CP55940; 30° C., 45 min. The method, then:
The compound of the present invention is active against the receptor product of the CB1 gene. The affinity of the compound of the invention for central cannabinoid receptors is demonstrable in methods described in Devane et al, Molecular Pharmacology, 1988, 34,605 or those described in WO01/70700 or EP 656354. Alternatively the assay may be performed as follows.
10 μg of membranes prepared from cells stably transfected with the CB1 gene were suspended in 200 μl of 100 mM NaCl, 5 mM MgCl2, 1 mM EDTA, 50 mM HEPES (pH 7.4), 1 mM DTT, 0.1% BSA and 100 μM GDP. To this was added an EC80 concentration of agonist (CP55940), the required concentration of test compound and 0.1 μCi [^35S]-GTPγS.
The reaction was allowed to proceed at 30° C. for 45 min. […] Filters were then covered with scintilant and counted for the amount of [^35S]-GTPγS retained by the filter.
Activity is measured in the absence of all ligands (minimum activity) or in the presence of an EC80 concentration of CP55940 (maximum activity). […] At various concentrations of novel ligand, activity is calculated as a percentage of the maximum activity and plotted. The data are fitted using the equation y=A+((B−A)/1+((C/x)ÙD)) and the IC50 value determined as the concentration required to give half maximal inhibition of GTPγS binding under the conditions used.

Each structure is given as a SMILES string.

T1 sequence (P21554 whole entry): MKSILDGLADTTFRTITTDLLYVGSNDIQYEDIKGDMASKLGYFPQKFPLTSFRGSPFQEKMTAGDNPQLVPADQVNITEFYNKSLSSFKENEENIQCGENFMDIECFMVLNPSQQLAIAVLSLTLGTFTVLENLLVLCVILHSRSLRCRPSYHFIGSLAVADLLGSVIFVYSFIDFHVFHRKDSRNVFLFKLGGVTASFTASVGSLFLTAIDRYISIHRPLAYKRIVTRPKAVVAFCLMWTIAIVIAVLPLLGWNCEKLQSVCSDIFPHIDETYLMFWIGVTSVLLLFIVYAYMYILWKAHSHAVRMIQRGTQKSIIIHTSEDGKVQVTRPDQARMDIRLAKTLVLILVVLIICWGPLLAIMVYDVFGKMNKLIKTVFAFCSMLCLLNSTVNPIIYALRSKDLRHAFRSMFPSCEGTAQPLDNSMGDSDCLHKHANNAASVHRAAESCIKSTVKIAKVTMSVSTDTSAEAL

Compound `O=C(N[C@@H]1CCCC[C@@H]1O)c1nn(-c2ccc(Cl)cc2Cl)c(-c2ccc(OS(=O)(=O)CCC(F)(F)F)cc2)c1CO` (single isomer, unassigned) [Example 1, (+)3,3,3-Trifluoro-propane-1-sulfonic acid 4-[2-(2,4-dichloro-phenyl)-5-(2-hydroxy-cyclohexylcarbamoyl)-4-hydroxymethyl-2H-pyrazol-3-yl]-phenyl ester] yielded an IC50 of 1 nM.
